# Results: patent US6395760B1, “Pesticidal 1-arylpyrazoles” (Rhone-Poulenc Inc., priority 1997, dated 2002)
# Key:
# Parameters in all cases: key: ‘X’ means highly active; ‘+’ means moderately active; ‘−’ means low activity
# Aphis gossypii = test: Soil drench test (systemic activity), aphids on cotton plants; type: in vivo; conditions: 10.0 ppm soil concentration by weight, aphid counts at 5 DAT vs untreated control
# Excerpt: (§1) The Soil Drench Test (Systemic Activity) Cotton and sorghum plants were established in pots. One day prior to treatment, each pot was infested with about 25 aphids of a mixed population. Cotton plants were infested with aphids and sorghum plants were infested with the greenbug. The selected compound of formula (I) was applied to the soil surface in a dilution that delivered the equivalent of 10.0 ppm soil concentration by weight. Aphid counts were obtained at 5 DAT (=days after treatment). The number of aphids on the treated plants was compared to the number of those on the untreated control plants.
# Schizaphis graminum = test: Soil drench test (systemic activity), greenbug on sorghum plants; type: in vivo; conditions: 10.0 ppm soil concentration by weight, counts at 5 DAT vs untreated control
# Excerpt: as §1
# Musca domestica = test: Housefly bait/contact test; type: in vivo; conditions: 50 ppm in sugar water bait solution, adult houseflies, mortality after 24 hours
# Excerpt: The Housefly Bait/Contact Test About 25 four to six-day-old adult houseflies were anesthetized and placed in a cage with a sugar water bait solution containing the compound. The concentration of the selected compound of formula (I) in the bait solution was 50 ppm.
# A. gossypii = test: Foliar application (contact test) with aphids; type: in vivo, Aphis gossypii; conditions: 100 ppm formulation sprayed to runoff on aphid-infested cotton plants, dead aphids counted three days after treatment
# Excerpt: Foliar Application (Contact Test) with Aphids Aphid-infested cotton plants were placed on a revolving turntable, and sprayed to runoff with a 100 ppm formulation of the selected compound of formula (I). The treated, A. gossypii-infested plants were held for three days after treatment, after which the dead aphids were counted.
SMILES,Systemic activity on aphids (Aphis gossypii),Systemic activity on greenbugs (Schizaphis graminum),Activity on house flies by contact (Musca domestica),Foliar activity on aphids (A. gossypii)
C[S+]([O-])c1c(C2(C)SCC[S+]2[O-])nn(-c2c(Cl)cc(C(F)(F)F)cc2Cl)c1N (stereo not shown) [Compound 20],−,−,X,−
CNc1c(S(C)(=O)=O)c(C2(C)OCCO2)nn1-c1c(Cl)cc(C(F)(F)F)cc1Cl [Compound 35],X,X,X,X
"CC1(c2nn(-c3c(Cl)cc(C(F)(F)F)cc3Cl)c(N)c2S(C)(=O)=O)OCCS1 (stereo not shown) [Compound 23, 5-amino-1-[2,6-dichloro-4-(trifluoromethyl)phenyl]-3-(2-methyl-1,3-oxathiolane-2-yl)-4-methylsulfonyl-1H-pyrazole]",X,,−,
CNc1c(SC)c(C2(C)OCCO2)nn1-c1c(Cl)cc(C(F)(F)F)cc1Cl [Compound 38],X,X,X,
C[S+]([O-])CC1COC(C)(c2nn(-c3c(Cl)cc(C(F)(F)F)cc3Cl)c(N)c2[S+](C)[O-])O1 (stereo not shown) [Compound 29],X,−,X,X
CC1(c2nn(-c3c(Cl)cc(C(F)(F)F)cc3Cl)c(N)c2S(C)(=O)=O)OCC(CO)O1 (stereo not shown) [Compound 7],X,X,+,X
CC1(c2nn(-c3c(Cl)cc(C(F)(F)F)cc3Cl)c(N)c2S(C)(=O)=O)SCCS1 [Compound 17],X,X,X,+
C[S+]([O-])c1c(C2(C)OCC(CO)O2)nn(-c2c(Cl)cc(C(F)(F)F)cc2Cl)c1N (stereo not shown) [Compound 26],−,+,X,−
CNc1c([S+](C)[O-])c(C2(C)OCCO2)nn1-c1c(Cl)cc(C(F)(F)F)cc1Cl (racemic) [Compound 39],+,X,−,
C[S+]([O-])CC1COC(C)(c2nn(-c3c(Cl)cc(C(F)(F)F)cc3Cl)c(N)c2S(C)(=O)=O)O1 (stereo not shown) [Compound 31],X,,+,+
C[S+]([O-])c1c(C2(C)SCCS2)nn(-c2c(Cl)cc(C(F)(F)F)cc2Cl)c1N (stereo not shown) [Compound 18],−,+,X,X
CSc1c(C2(C)OCCS2)nn(-c2c(Cl)cc(C(F)(F)F)cc2Cl)c1N (stereo not shown) [Compound 24],X,X,,
CSc1c(C2(C)OCC(CO)(CO)CO2)nn(-c2c(Cl)cc(C(F)(F)F)cc2Cl)c1N [Compound 14],−,,−,−
CCNc1c([S+](C)[O-])c(C2(C)OCCO2)nn1-c1c(Cl)cc(C(F)(F)F)cc1Cl (stereo not shown) [Compound 37],X,,X,X
"CSc1c(C2(C)SCCS2)nn(-c2c(Cl)cc(C(F)(F)F)cc2Cl)c1N [Compound 16, 5-amino-1-[2,6-dichloro-4-(trifluoromethyl)phenyl]-3-(2-methyl-1,3-dithiolane-2-yl)-4-methylthio-1H-pyrazole]",−,X,X,+
"COC(C)(OC)c1nn(-c2c(Cl)cc(C(F)(F)F)cc2Cl)c(N)c1SC [Compound 1, 5-amino-1-[2,6-dichloro-4-(trifluoromethyl)phenyl]-3-[(1,1-dimethoxy)ethyl]-4-methylthio-1H-pyrazole]",X,X,X,+
CSc1c(C2(C)OCC(C[S+](C)[O-])O2)nn(-c2c(Cl)cc(C(F)(F)F)cc2Cl)c1N (stereo not shown) [Compound 28],X,−,X,X

SMILES,Systemic activity on aphids (Aphis gossypii),Systemic activity on greenbugs (Schizaphis graminum),Activity on house flies by contact (Musca domestica),Foliar activity on aphids (A. gossypii)
CSc1c(C2(C)OCC(C)O2)nn(-c2c(Cl)cc(C(F)(F)F)cc2Cl)c1N (stereo not shown) [Compound 4],X,X,X,X
CSc1c(C2(C)OCCCO2)nn(-c2c(Cl)cc(C(F)(F)F)cc2Cl)c1N [Compound 12],X,X,X,X
CC1(c2nn(-c3c(Cl)cc(C(F)(F)F)cc3Cl)c(N)c2S(C)(=O)=O)SCC[S+]1[O-] (stereo not shown) [Compound 21],−,−,X,−
"C[S+]([O-])c1c(C2(C)NCCS2)nn(-c2c(Cl)cc(C(F)(F)F)cc2Cl)c1N (stereo not shown) [Compound 15, 5-amino-1-[2,6-dichloro-4-(trifluoromethyl)phenyl]-3-(2-methylthiazolidine-2-yl)-4-methylsulfinyl-1H-pyrazole]",X,X,X,−
CC1(c2nn(-c3c(Cl)cc(C(F)(F)F)cc3Cl)c(N)c2S(C)(=O)=O)OCCO1 [Compound 5],X,X,X,X
"CC1(c2nn(-c3c(Cl)cc(C(F)(F)F)cc3Cl)c(N)c2S(C)(=O)=O)S(=O)(=O)CCS1(=O)=O [Compound 25, 5-amino-1-[2,6-dichloro-4-(trifluoromethyl)phenyl]-3-(2-methyl-1,1,3,3-tetraoxo-1,3-dithiolane-2-yl)-4-methylsulfonyl-1H-pyrazole]",−,,−,
CSCC1COC(C)(c2nn(-c3c(Cl)cc(C(F)(F)F)cc3Cl)c(N)c2SC)O1 (stereo not shown) [Compound 27],X,+,X,−
CCNc1c(S(C)(=O)=O)c(C2(C)OCCO2)nn1-c1c(Cl)cc(C(F)(F)F)cc1Cl [Compound 34],X,X,X,X
COC(C)(OC)c1nn(-c2c(Cl)cc(C(F)(F)F)cc2Cl)c(N)c1[S+](C)[O-] (stereo not shown) [Compound 2],+,X,X,X
CSCC1COC(C)(c2nn(-c3c(Cl)cc(C(F)(F)F)cc3Cl)c(N)c2S(C)(=O)=O)O1 (stereo not shown) [Compound 30],X,,−,
CSc1c(C2(C)OCCO2)nn(-c2c(Cl)cc(C(F)(F)F)cc2Cl)c1N [Compound 3],X,X,X,X
CC1(c2nn(-c3c(Cl)cc(C(F)(F)F)cc3Cl)c(N)c2S(C)(=O)=O)[S+]([O-])CC[S+]1[O-] (stereo not shown) [Compound 22],X,+,−,−
CC1(c2nn(-c3c(Cl)cc(C(F)(F)F)cc3Cl)c(N)c2S(C)(=O)=O)OCCCO1 [Compound 13],,X,X,X
CSc1c(C2(C)SCC[S+]2[O-])nn(-c2c(Cl)cc(C(F)(F)F)cc2Cl)c1N (stereo not shown) [Compound 19],−,+,X,X
CCNc1c(SC)c(C2(C)OCCO2)nn1-c1c(Cl)cc(C(F)(F)F)cc1Cl [Compound 36],X,,X,+
CC1COC(C)(c2nn(-c3c(Cl)cc(C(F)(F)F)cc3Cl)c(N)c2[S+](C)[O-])O1 (stereo not shown) [Compound 11],X,X,X,X
"C[S+]([O-])c1c(C2(C)OCCO2)nn(-c2c(Cl)cc(C(F)(F)F)cc2Cl)c1N (stereo not shown) [Compound 10, 5-amino-1-[2,6-dichloro-4-(trifluoromethyl)phenyl]-3-(2-methyl-1,3-dioxolane-2-yl)-4-methylsulfinyl-1H-pyrazole]",X,X,X,X
